Results: patent US7125854B2, “Bicyclic carbohydrates as antiprotozoal bioactive for the treatment of infections caused by parasites” (Kemin Pharma B.V.B.A., priority 2003, dated 2006)
Where two headings read alike, the source gives them in different places. Each block holds one compound with its values, some of them ahead of it.

Experiments:
P. falciparum [1] = assay: WHO screening against P. falciparum (Table 1); format: cell-based; conditions: Plasmodium falciparum; Table 1, WHO screening
Description: (§1) Compound A1 was screened against Trypanosoma brucei by World Health Organization (Switzerland) using its established screening service.

P. falciparum [2] = assay: Screening against P. falciparum (Table 2); format: cell-based, Plasmodium falciparum
T. cruzi [3] = assay: WHO screening against T. cruzi (Table 1); format: cell-based, Trypanosoma cruzi; conditions: Table 1, WHO screening
T. brucei rhodesiense [4] = assay: WHO screening against Trypanosoma brucei (Table 1); format: cell-based; conditions: read-out: IC50 T. brucei rhodesiense
Description: as §1

human cell line (MRC-5) = assay: Cytotoxicity assay on a human cell line (MRC-5); format: cell-based; conditions: read-out: Cytox
T. cruzi [5] = assay: Screening against T. cruzi (Table 2); format: cell-based, Trypanosoma cruzi
T. brucei rhodesiense [6] = assay: Screening against T. brucei rhodesiense (Table 2); format: cell-based, Trypanosoma brucei rhodesiense
[7] = test system: Leishmania donovani MHOM/ET/67/L82; assay: Leishmania donovani amastigotes in primary peritoneal mouse macrophages, parasite growth after 96 hours; format: cell-based; conditions: 96 hours of incubation, read-out: IC50 L. donovani
Method: One strain of Leishmania spp. (Leishmania.donovani MHOM/ET/67/L82) is used. The strain is maintained in the hamster. Amastigotes are collected from the spleen of an infected hamster and spleen parasite burden is assessed using the Stauber technique or amastigotes are counted in the haemocytometer after 1:100 dilution in trypan blue.
Primary peritoneal mouse (CDI or NMRI) macrophages are collected 1 day after a macrophage production stimulation with an i.p injection of 2 ml of 2% starch in distilled water. All cultures and assays are conducted at 37° C. under an atmosphere of 5% CO2. Ten mg/ml compound stock solutions are prepared as advised by the supplier, otherwise dissolved in 100% DMSO. Stock solutions are kept at 4° C. for a maximum of 2 weeks, thereafter at −20° C. The compounds are pre-diluted to 1 mg/ml. Assays are performed in sterile 16-well tissue culture slides, each well containing 100 μl of the compound dilutions together with 100 μl of macrophage/parasite inoculum (4×10^5 macrophages/ml and 1.2×10^6 parasites/ml). The inoculum is prepared in RPMI-1640 medium, supplemented with 10% heat inactivated fetal calf serum. […] After 96 hours of incubation, parasite growth is microscopically assessed after staining the cells with a 10% Giemsa solution. The results are expressed as IC50 calculated by linear regression analysis. […]

L-6 mammalian cells = assay: Cytotoxicity assay on L-6 mammalian cells; format: cell-based
sleeping sickness = conditions: cited from earlier work
[8] = Trypanosoma brucei, RHODESIENSE

IC50 ([7]; Leishmania donovani, Macrophage): 470 nM
SMILES: CCCCCCCCCCCCCCCCOP(=O)([O-])OCC[N+](C)(C)C [Miltefosine]

IC50 (T. cruzi [3]; Trypanosoma cruzi): 1240 nM
SMILES: CC1CS(=O)(=O)CCN1/N=C/c1ccc([N+](=O)[O-])o1 (stereo not shown) [Nifurtimox]

The remaining lines, values behind:

SMILES: CCN(CC)CCCC(C)Nc1ccnc2cc(Cl)ccc12 (stereo not shown) [Chloroquine]
IC50 (P. falciparum [1]): 14 nM
IC50 (P. falciparum [2]; Plasmodium falciparum): 5 nM

SMILES: O[C@@H]1[C@@H](O)[C@H](Sc2ccccc2)O[C@@H]2CO[C@@H](c3ccccc3)O[C@@H]12 [Compound A1]
IC50 (T. cruzi [3]): > 32000 nM
IC50 (T. brucei rhodesiense [4]; Table 1, WHO screening): 187 nM
IC50 (human cell line (MRC-5)): > 32 µM

SMILES: OC1C(Cc2ccccc2)OC2COC(c3ccc(Cl)cc3)OC2C1O (stereo not shown) [Compound A3]
IC50 (P. falciparum [2]): > 13300 nM
IC50 (T. cruzi [5]): 14.3 µM
IC50 (T. brucei rhodesiense [6]): 20.4 µM
IC50 [7]: < 980 nM
IC50 (L-6 mammalian cells): 60 µM

SMILES: Nc1nc(N)nc(Nc2ccc([As]3SCC(CO)S3)cc2)n1 (stereo not shown) [Melarsoprol]
IC50 (T. brucei rhodesiense [6]; [8]): 0.01 µM
patients treated killed outright (sleeping sickness; patients, injected): 3–10%
patients the drug fails to cure (sleeping sickness; some areas of Africa (Omugo, Uganda; Ibba, South Sudan)): 25–30%

SMILES: Cc1ccc(C(=O)Nc2ccc(S(=O)(=O)O)c3cc(S(=O)(=O)O)cc(S(=O)(=O)O)c23)cc1NC(=O)c1cccc(NC(=O)Nc2cccc(C(=O)Nc3cc(C(=O)Nc4ccc(S(=O)(=O)O)c5cc(S(=O)(=O)O)cc(S(=O)(=O)O)c45)ccc3C)c2)c1 [Suramin]
IC50 (T. brucei rhodesiense [4]; [8]): 210 nM
